This passage reports IC50 results from BindingDB's records for doi:10.1021/jm980294n (University of Utah, 1998).

Each structure is given as a SMILES string.

A short description of assay [1]: Inhibition of insulin receptor mediated mitogenesis of NIH3T3 cells.
Assay [2] is described as follows: Inhibition of Epidermal growth factor receptor mediated mitogenesis of NIH3T3 cells.

In general, IC50 refers to the concentration that gives 50% inhibition. The low end stands for greater potency, the high end for weaker potency. Turning to `COc1ccc(Cc2cn(Cc3ccc(O)cc3)c(NC3=NC(=O)N(C)C3=O)n2)cc1` [5-[1-(4-Hydroxy-benzyl)-4-(4-methoxy-benzyl)-1H-imidazol-2-ylamino]-3-methyl-imidazole-2,4-dione], the IC50 in assay [1] turned out to be 9.8 µM; in assay [2] it was 22.7 µM.
Turning to `COc1ccc(Cc2cn(Cc3ccc(OC)cc3)c(NC3=NC(=O)N(C)C3=O)n2)cc1` [5-[1,4-Bis-(4-methoxy-benzyl)-1H-imidazol-2-ylamino]-3-methyl-imidazole-2,4-dione], the IC50 in assay [1] stood at 6.7 µM; in assay [2], 36.9 µM.
Taken in the same sequence, the figures for `COc1ccc(Cc2nc(NC3=NC(=O)N(C)C3=O)n(C)c2Cc2ccc(O)cc2)cc1` [4-(5-(4-hydroxybenzyl)-4-(4-methoxybenzyl)-1-methyl-1H-imidazol-2-ylamino)-1-methyl-1H-imidazole-2,5-dione] were 242 µM and 11.3 µM.
